Test results reported in publication PMC5697638, “Identification of a Potent Phosphoinositide 3‐Kinase Pan Inhibitor Displaying a Strategic Carboxylic Acid Group and Development of Its Prodrugs” (Chemmedchem, 2017).

Experiments:
[1] = target: T1, hPI3Kγ (PIK3CG) (Homo sapiens, UniProt P48736); experiment: lipid kinase assay (ADP-Glo), PI3Kγ; type: biochemical
T1 construct: purchased ProQinase, Germany 1163‐0000‐1
Description: (§1) In vitro selection, lipid kinase assay: To determine the inhibitory activity of the new molecular entities on PI3K enzyme, a lipid kinase assay was performed: recombinant proteins (30 ng), human PI3Kα (PIK3CA/PIK3R1, #1161‐1165‐1 ProQinase–Germany), hPI3Kβ (PIK3CB wt/PIK3R1, #1168‐1165‐1 ProQinase, Germany), hPI3Kγ (PIK3CG, #1163‐0000‐1 ProQinase, Germany), hPI3Kδ (PIK3CD/PIK3R1, #1162–1165‐1 ProQinase, Germany), hPI3K‐C2α (PIK3C2A, #14‐906 Merck Millipore_Merck KGaA, Germany), hPI3K‐C2β (PIK3C2B, #14‐907 Merck Millipore_Merck KGaA, Germany), hPI3K‐c2γ (PIK3C2G, #1207‐0000‐1 ProQinase, Germany), and hVps34 (PIK3C3, #1160‐0000‐1 ProQinase, Germany), were incubated in kinase buffer {12.5 μL; 20 mM Tris‐HCl pH 7.5, 10 mM MgCl2, 10 μM ATP, 0.05 mg mL^−1 BSA, 0.5 mM EDTA, 5 mM HEPES pH 7.5, for PI3Kα,PI3Kβ, PI3Kγ, PI3Kδ, PI3KC‐2α, and PI3KC‐2γ; 15 mM MnCl2, 5 mM EGTA, 100 μM ATP, 50 mM HEPES pH 7.5, 100 mM NaCl, and 0.03 % CHAPS for PI3K‐C2β and VPS34 {BSA=bovine serum albumin; EDTA=ethylenediaminetetraacetic acid; HEPES=4‐(2‐hydroxyethyl)‐1‐piperazineethanesulfonic acid; EGTA=ethylene glycol‐bis(2‐aminoethylether)‐N,N,N′,N′‐tetraacetic acid; CHAPS=3‐[(3‐cholamidopropyl)dimethylammonio]‐1‐propanesulfonate}. In the reaction, the ATP concentration used for different PI3Ks was defined on the basis of the Michaelis–Menten kinetics of each enzyme, provided by the supplier. Reaction was performed in presence of 0.5 mg mL^−1 lipid micelles (1:1 phosphatidylinositol/phosphatidylserine) and in the absence (DMSO alone) or presence of increasing concentrations of each compound (from 0.1 nM to 30 μM). The mixture was kept at room temperature (RT) for 30 min for PI3Kα, PI3Kβ, PI3Kγ, PI3Kδ, PI3KC‐2α, and PI3KC‐2γ and for 1 h for PI3K‐C2β and PI3K‐C3. The amount of ADP produced in the reaction was measured by using the ADP‐Glo Kinase Assay kit from Promega (#V9102) and a luminescence reader (Glomax multi detection system, Promega, model number 9301‐010).
The residual PI3K lipid kinase activity in the presence of each molecule at different concentrations was related to the control, intended as the recombinant protein in the presence of DMSO alone and was expressed as a percentage. To derive the IC50 value, all data (% of lipid kinase activity) were plotted on a dose–response curve (Graph Pad software), and the IC50 was calculated by using nonlinear regression fit (equation [log agonist] versus response).

[2] = target: hPI3K‐C2α (PIK3C2A) (Homo sapiens, UniProt O00443); experiment: lipid kinase assay (ADP-Glo), PI3K-C2α; type: biochemical; conditions: Table 2; mean of at least three determinations, 95 % confidence intervals; read-out: IC50 PI3Kc2α
Description: as §1, with “Reaction was performed in presence of 0.5 mg mL^−1 lipid micelles (1:1 phosphatidylinositol/phosphatidylserine) and in the absence (DMSO alone) or presence of increasing concentrations of each compound (from 0.1 nM to 30 μM). The mixture was kept at room temperature (RT) for 30 min for PI3Kα, PI3Kβ, PI3Kγ, PI3Kδ, PI3KC‐2α, and PI3KC‐2γ and for 1 h for PI3K‐C2β and PI3K‐C3. The amount of ADP produced in the reaction was measured by using the ADP‐Glo Kinase Assay kit from Promega (#V9102) and a luminescence reader (Glomax multi detection system, Promega, model number 9301‐010).” left out

[3] = metabolic stability in rat liver microsomes (RLM); type: in vitro ADME
Description: Twelve esters were prepared (see the Experimental Section for their synthesis and the Supporting Information for chromatographic methods) and evaluated in terms of metabolic stability. For this task, a combined approach based on microsomal and plasmatic stability assays was exploited considering the relevance of the plasmatic and hepatic tissues in esterase activity. Microsomal stability of the selected esters was evaluated by monitoring the disappearance of the substrate incubated in rat liver microsomes (RLM) at 50 μM concentration, in the presence of NADPH. In Table 4, the percentage of the remaining substrate, after incubation (t=60 min), with respect to the initial amount is reported. Overall, the compounds underwent a relevant metabolic transformation, and the substrate depletion ranged from 0 (for 76) to 100 % (for 70). This is mainly due to hydrolysis of the ester function, whereas the metabolites arising from the oxidation catalyzed by the NADPH‐dependent monooxygenase system were negligible from a quantitative point of view. Indeed, the main metabolite formed during the incubation of the esters was corresponding carboxyl derivative 37. […] Moreover, whereas CH2‐pyridin‐4‐yl ester 70 was completely metabolized, corresponding benzyl derivative 65 and piperonyl derivative 72 were more hydrolytically stable, and their residual substrates were 53 and 83 %, respectively. The hydrolytic stability of the selected esters was also evaluated by monitoring the depletion of the substrate incubated at a 50 μM concentration in mouse plasma over a period of 30 min. As expected, the plasmatic metabolic fate of the esters was characterized by the formation of 37 as the only metabolite (see Figure S4). The rate constant k [min^−1], derived for the substrate peak area versus time curve (single‐exponential decay equation—GraphPad Prism software, Inc., San Diego, CA (USA); see Figure S5) was used to calculate the in vitro half‐life t 1/2 [min], and the values are reported in Table 4.
Metabolic stability of PI3K inhibitors in RLM fraction
The standard incubation mixture (500 µL final volume), in 1.5 mL Eppendorf tubes, was carried out in a 50 mM TRIS-HCl buffer (pH 7.4) containing 3.3 mM MgCl2, 1.3 mM NADPNa2, 3.3 mM glucose 6-phosphate, 0.4 Units/mL glucose 6-phosphate dehydrogenase (NADPH regenerating system), acetonitrile as cosolvent (1% of final volume) and 50 µM of substrate. After pre-equilibration of the mixture, an appropriate volume of rat microsomal suspension was added to give a final protein concentration of 1 mg/mL. The mixture was shaken for 1 hour at 37°C and the reaction was quenched by diluting the samples with 500 µL of ice-cold acetonitrile. The samples were then centrifuged at 13,000 rpm for 10 min, and the supernatant was directly injected onto the HPLC column for analysis. Control incubations were performed without microsomes. […]
A Shimadzu HPLC system (Shimadzu, Kyoto, Japan), consisting of two LC-10AD Vp module pumps, an SLC-10A Vp system controller, an SIL-10AD Vp autosampler, and a DGU-14-A on-line degasser was used for the analysis. All the chromatographic separations were performed on a Phenomenex Luna C18 5µm (150 x 4.6 mm i.d.) (Phenomenex srl, Castel Bolognese, Italy) as a stationary phase protected by a Luna C18 SecurityGuard (Phenomenex srl). The SPD-M10Avp photodiode array detector was used to detect the analyte at 254 nm. LC Solution 1.24 software was used to process the chromatograms. Aliquots (20 µL) of supernatants obtained from incubations were injected onto the HPLC system and eluted with a mobile phase (flow rate: 1 mL/min) consisting of solvent A- 0.5% aqueous formic acid solution and solvent B- acetonitrile/methanol 80:20.
The eluants were filtered through a 0.45-µm pore size polyvinylidene difluoride membrane […]
The following gradients programs were used: […]

T1 sequence (P48736 whole entry): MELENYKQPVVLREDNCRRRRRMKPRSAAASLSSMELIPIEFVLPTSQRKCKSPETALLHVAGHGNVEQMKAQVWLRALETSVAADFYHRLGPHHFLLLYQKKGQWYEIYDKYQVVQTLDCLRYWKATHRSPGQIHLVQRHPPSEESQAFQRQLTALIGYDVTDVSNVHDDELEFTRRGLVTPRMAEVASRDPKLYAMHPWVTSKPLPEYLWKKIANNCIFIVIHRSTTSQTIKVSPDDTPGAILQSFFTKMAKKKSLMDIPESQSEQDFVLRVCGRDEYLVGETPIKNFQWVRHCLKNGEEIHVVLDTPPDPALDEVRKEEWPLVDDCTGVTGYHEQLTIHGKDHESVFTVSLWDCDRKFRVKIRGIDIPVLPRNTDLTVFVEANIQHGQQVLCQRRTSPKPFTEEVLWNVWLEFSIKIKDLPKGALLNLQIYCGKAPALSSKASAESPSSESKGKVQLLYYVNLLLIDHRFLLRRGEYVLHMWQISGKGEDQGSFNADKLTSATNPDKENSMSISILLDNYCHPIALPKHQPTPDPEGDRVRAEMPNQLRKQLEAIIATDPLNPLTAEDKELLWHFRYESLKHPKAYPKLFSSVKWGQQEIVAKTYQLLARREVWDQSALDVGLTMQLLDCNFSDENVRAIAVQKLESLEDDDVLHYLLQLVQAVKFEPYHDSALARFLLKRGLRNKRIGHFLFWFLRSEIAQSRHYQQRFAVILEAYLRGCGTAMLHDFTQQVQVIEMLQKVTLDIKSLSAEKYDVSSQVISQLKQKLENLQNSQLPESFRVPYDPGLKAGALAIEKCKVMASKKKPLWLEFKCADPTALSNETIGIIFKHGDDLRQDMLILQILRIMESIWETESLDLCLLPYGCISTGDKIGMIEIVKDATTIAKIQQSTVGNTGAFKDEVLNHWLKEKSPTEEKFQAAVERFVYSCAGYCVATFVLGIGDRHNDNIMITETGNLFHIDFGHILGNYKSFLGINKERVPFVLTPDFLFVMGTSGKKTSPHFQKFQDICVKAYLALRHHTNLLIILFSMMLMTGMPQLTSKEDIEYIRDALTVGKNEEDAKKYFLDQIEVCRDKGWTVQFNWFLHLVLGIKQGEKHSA
Chain of hPI3K‐C2α (PIK3C2A) (O00443 whole entry): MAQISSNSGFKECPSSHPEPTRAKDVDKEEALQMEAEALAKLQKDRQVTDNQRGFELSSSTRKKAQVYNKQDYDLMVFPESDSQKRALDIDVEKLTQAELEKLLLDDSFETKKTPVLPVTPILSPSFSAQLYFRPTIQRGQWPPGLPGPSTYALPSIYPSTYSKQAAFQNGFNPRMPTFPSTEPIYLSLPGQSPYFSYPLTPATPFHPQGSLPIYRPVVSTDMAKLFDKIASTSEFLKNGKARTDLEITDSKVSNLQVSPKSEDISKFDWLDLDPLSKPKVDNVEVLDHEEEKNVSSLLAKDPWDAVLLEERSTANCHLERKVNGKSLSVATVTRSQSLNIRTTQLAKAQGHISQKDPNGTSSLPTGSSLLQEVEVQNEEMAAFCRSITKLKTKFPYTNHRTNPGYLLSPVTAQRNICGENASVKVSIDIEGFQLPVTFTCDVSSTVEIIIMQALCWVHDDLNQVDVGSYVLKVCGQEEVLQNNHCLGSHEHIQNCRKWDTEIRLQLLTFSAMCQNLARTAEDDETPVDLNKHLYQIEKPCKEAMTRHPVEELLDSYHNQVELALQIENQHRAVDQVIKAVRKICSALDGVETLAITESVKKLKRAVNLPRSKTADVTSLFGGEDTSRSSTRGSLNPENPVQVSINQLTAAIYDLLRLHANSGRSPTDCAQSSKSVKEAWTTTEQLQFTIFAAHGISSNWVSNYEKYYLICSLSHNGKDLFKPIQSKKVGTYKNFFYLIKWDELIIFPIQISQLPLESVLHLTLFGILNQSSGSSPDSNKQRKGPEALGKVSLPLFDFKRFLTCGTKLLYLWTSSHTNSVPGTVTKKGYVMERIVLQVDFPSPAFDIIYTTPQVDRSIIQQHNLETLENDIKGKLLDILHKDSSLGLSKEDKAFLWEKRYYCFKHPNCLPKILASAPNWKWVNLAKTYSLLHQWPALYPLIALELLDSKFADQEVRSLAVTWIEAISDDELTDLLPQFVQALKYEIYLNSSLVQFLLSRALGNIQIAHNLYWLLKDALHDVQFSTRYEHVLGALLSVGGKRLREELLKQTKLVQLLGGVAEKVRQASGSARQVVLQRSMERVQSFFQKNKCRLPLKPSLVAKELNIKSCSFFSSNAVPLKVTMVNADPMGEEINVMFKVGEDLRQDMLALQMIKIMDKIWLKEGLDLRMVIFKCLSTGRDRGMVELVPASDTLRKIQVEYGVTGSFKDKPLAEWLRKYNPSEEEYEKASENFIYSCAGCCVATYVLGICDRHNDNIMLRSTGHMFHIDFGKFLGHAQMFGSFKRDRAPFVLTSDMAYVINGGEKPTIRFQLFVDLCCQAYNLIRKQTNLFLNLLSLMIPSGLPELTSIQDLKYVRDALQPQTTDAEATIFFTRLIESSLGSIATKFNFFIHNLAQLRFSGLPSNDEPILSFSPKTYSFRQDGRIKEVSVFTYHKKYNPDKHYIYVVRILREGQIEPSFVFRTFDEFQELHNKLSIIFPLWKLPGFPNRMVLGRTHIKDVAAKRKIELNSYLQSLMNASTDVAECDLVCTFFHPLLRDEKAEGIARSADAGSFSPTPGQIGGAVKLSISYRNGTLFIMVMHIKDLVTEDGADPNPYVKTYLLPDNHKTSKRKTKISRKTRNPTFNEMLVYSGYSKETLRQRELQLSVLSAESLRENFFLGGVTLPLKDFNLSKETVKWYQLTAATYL

SMILES	IC50 ([1]; Table 2, mean of at least three determinations, 95 % confidence intervals)	inhibition at 1 µM ([1]; determined at 1 μM, at least triplicate, read-out: Inhibitory activity, PI3K isoform γ)	IC50 [2]	Residual microsomal substrate (t=60 min) ([3]; RLM, 50 μM substrate, with NADPH, LC–UV)	% residual substrate, NADPH (without RLM) ([3]; control incubation without microsomes, 50 μM, 60 min)
O=C(O)c1cccc(Cn2cc(-c3cccc4c(=O)cc(N5CCOCC5)[nH]c34)nn2)c1 [Compound 37, 3‐{[4‐(2‐Morpholino‐4‐oxo‐1,4‐dihydroquinolin‐8‐yl)‐1H‐1,2,3‐triazol‐1‐yl]methyl}benzoic acid]	186 ± 43 nM	> 50%	3700 ± 1100 nM		
COC(=O)c1cccc(Cn2cc(-c3cccc4c(=O)cc(N5CCOCC5)[nH]c34)nn2)c1 [Compound 64, Methyl 3‐{[4‐(2‐morpholino‐4‐oxo‐1,4‐dihydroquinolin‐8‐yl)‐1H‐1,2,3‐triazol‐1‐yl]methyl}benzoate]				20%	100%
